The source of these data is patent publication US7659251B2, “Ligand for G-protein coupled receptor FPRL2” (priority 2004, dated 2010).

Assay [1] addresses T1, FPR (Homo sapiens, UniProt P21462, E346A/V101L).
T1 construct: expressed in transfected cells; host or cells: CHO-K1 (with or without Galpha16 and apoaequorin)
T1 sequence (P21462 1-350 V101L/E346A): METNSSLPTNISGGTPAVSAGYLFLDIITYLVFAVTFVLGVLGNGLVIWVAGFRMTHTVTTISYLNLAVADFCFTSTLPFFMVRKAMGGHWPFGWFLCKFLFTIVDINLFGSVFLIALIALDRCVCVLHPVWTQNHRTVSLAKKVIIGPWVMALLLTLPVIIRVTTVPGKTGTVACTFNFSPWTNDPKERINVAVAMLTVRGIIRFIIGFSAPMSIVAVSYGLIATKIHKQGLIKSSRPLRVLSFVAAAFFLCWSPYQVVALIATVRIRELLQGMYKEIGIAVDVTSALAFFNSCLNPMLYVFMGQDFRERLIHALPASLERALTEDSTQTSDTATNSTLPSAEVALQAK
Kind of assay: Aequorin-based assay on CHO-K1 cells expressing FPR. In kind it is cell-based. From the text:
The human coding sequences (accession numbers AC005946, M84562 and M60626, respectively) were amplified by PCR from human genomic DNA, cloned into the pcDNA3 (Invitrogen) and pEFIN3 (Euroscreen) vectors and sequenced. The pEFIN3 constructs were transfected, using Fugene 6, into CHO-K1 cells, expressing or not Gα16 and apoaequorin. G418-resistant clones were characterized for receptor expression by Northern blotting. […] Results were expressed as relative light units (RLU) or as the percentage of the response to 20 μM ATP.

For assay [2], the target named is T2, FPRL2 (Homo sapiens, UniProt P25089).
T2 sequence (P25089 1-353): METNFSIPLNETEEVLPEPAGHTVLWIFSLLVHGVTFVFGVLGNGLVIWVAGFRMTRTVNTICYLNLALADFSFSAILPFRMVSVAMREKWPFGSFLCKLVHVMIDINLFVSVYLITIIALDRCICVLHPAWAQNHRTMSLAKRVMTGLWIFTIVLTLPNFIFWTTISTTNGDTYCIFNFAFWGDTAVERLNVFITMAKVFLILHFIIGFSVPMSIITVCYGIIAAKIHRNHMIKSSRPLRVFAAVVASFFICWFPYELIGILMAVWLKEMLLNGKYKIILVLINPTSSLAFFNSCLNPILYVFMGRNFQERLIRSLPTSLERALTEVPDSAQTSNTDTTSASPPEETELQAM
Kind of assay: Cell surface FPRL2 on DCs by FACS after culture with F2L. The assay is classed as cell-based. Also on record: expressed in transfected cells; host or cells: CHO-K1. The conditions noted are these: 1 μM F2L for 48 hours; not shown. As for the experimental part:
Antibodies were generated by injecting BALB/c mice with 100 μg pcDNA3-FPRL2 as described (45). Sera were tested by FACS on the CH0-K1-FPRL2 cell line, and immune mice were used to generate monoclonal antibodies by standard hybridoma technology, using the NSO myeloma cell line. The Ig class of selected hybridomas was determined with a mouse mAb isotyping kit (IsoStrip, Boehringer Mannheim). The antibodies were tested using flow cytometry, performed using anti-FPRL2 antibodies or control IgG2a at 1 μg/ml (for CHO-K1 cells) or 5 μg/ml (for primary cells) in PBS containing 0.1% BSA, 0.1% sodium azide, and FITC-conjugated γ-chain-specific goat anti-mouse IgG (Sigma) as secondary antibody. Fluorescence of 10,000 cells was assayed using a FACScan flow cytofluorimeter (Beckton Dickinson). Intracytoplasmic staining was realised using Cytoperm/Cytowash (Becton Dickinson) according to manufacturer's instructions.
Background: Flow cytometry measures light scatter and fluorescence of single cells or particles in a stream.

Assay [3] deals with monocyte-derived DCs. In words: Ca2+ mobilization assay on monocyte-derived DCs. The conditions noted are these: dose-dependent; FIG. 13A. The assay is classed as cell-based, human. As for the experimental part: Monocyte-derived DCs were generated either from the adherent fraction of PBMCs cultured with GM-CSF (800 U/ml) and […] (500 U/ml), or from Percoll-purified monocytes cultured with GM-CSF (50 ng/ml) and IL-13 (20 ng/ml), for 5 to 7 days. For Ca^2+ mobilization assay, monocytes were obtained by negative selection with the Monocyte Isolation Kit II (Miltenyi Biotec). […] For Ca^2+ mobilization assays, monocyte-derived DCs or monocytes (5×10^5 cells/ml in HBSS without phenol red but containing 0.1% BSA and 1 mM Probenecid (Sigma)) were loaded with 4 μM Fluo 4 (Molecular Probes) for 1 h at 20° C. in the dark. The loaded cells were washed twice, resuspended at 1 to 2×10^6 cells/ml and 50 μl of cell suspension was distributed per well of a 96 well plate (Viewplate, Packard Bioscience). Reading was performed in a Fluostar fluorimeter (BMG) at 25° C.: 50 μl of ligand-containing medium was injected, and the fluorescence at 520 nm was recorded every second for 1 to 3 min. Each condition was performed in triplicate, the mean fluorescence for each time point was calculated, and the curves were normalized by subtracting the mean value of the five measurements preceding the injection.
(In general: Calcium flux is commonly read through the fluorescence of an indicator in the cells.)

The subject of assay [4] is ERK1/2 MAP-kinases. Kind of assay: ERK1/2 activation by Western blotting in FPRL2-expressing CHO-K1 cells. The assay is classed as cell-based, human. As for the experimental part: The cAMP concentrations were determined using a homogeneous time-resolved fluorescence (HTRF) kit (Cis Bio International). Briefly, cells were detached, resuspended in Krebs Ringer Hepes buffer containing 1 mM 3-Isobutyl-1-methylxanthine, and submitted to 10 μM forskolin, alone or together with increasing concentrations of agonists for 30 min at room temperature. The reaction was stopped by the successive addition of cAMP-XL665 and anti-cAMP cryptate diluted in lysis buffer. The plates were incubated for 60 min at room temperature and read on a Rubystar fluorimeter (BMG). […] A calibration curve was obtained by plotting delta F % versus cAMP concentrations. ERK1/2 activation was assayed by Western blotting, using an anti-phospho-p42/44 monoclonal antibody (E10, Cell Signaling Technology) as described (46). The aequorin-based assay was performed with or without overnight pretreatment with 100 ng/ml Pertussis toxin. […] For FPRL2 polymorphism analysis, HEK cells were transiently transfected with empty and wild-type or Asp338H is FPRL2-containing pcdna vector using calcium phosphate method. Cells were recovered 48 hours later and used for FACS or cAMP experiments.
Background: A western blot detects proteins with antibodies after separation by electrophoresis.

For `CC[C@H](C)[C@H](NC(=O)[C@H](CCSC)NC(=O)CNC(=O)[C@H](CC(C)C)NC(=O)[C@H](CCSC)NC(C)=O)C(=O)N[C@@H](CCCCN)C(=O)N[C@@H](CC(N)=O)C(=O)N[C@@H](CO)C(=O)N[C@@H](CC(C)C)C(=O)N[C@@H](Cc1ccccc1)C(=O)NCC(=O)N[C@@H](CO)C(=O)N[C@H](C(=O)N[C@@H](CCC(=O)O)C(=O)N[C@H](C(=O)N[C@@H](Cc1c[nH]c2ccccc12)C(=O)N1CCC[C@H]1C(=O)N[C@@H](Cc1c[nH]c2ccccc12)C(=O)N[C@@H](CCC(N)=O)C(=O)N[C@H](C(=O)N[C@@H](CC(C)C)C(=O)O)C(C)C)[C@@H](C)O)C(C)C` [F2L], the “activation of FPR” value in assay [1] (FIG. 6) was “not able to activate”. Further, the EC50 in assay [1] (FPR, −Log of EC50 in Mol/L, mean ± s.e.m., read-out: pEC50 (sequorin assay) (converted)) was over 1000 nM. Further, in assay [1] (up to 5 μM), the “activity in the aequorin assay on FPR” value is given as “no activity was detected”. Also, the “cell surface FPRL2 on DCs” value in assay [2] is on record as “down regulation”. For the same compound, in assay [3], the “intracellular Ca2+ flux in immature DCs” value is reported as “promoted intracellular Ca^2+ flux”. The “time of maximal ERK1/2 phosphorylation” value in assay [4] (100 nM F2L, FIG. 11J) amounted to 15 min. The “concentrations inducing phosphorylation of the ERK1/2 MAP-kinases” value in assay [4] (stimulation for 10 min, FIG. 11I) was “picomolar concentrations”.
